Test results as given in the NIST ThermoML archive (doi:10.1021/je9003178).
± gives the expanded uncertainty stated by the source.

Test: activity coefficient (dimensionless); of the first substance listed, at infinite dilution; xn = mol fraction of the nth substance listed
Details: Liquid, Chromatography, x1 = 0

| SMILES | activity coefficient (322.65 K) | activity coefficient (343.85 K) | activity coefficient (352.65 K) | activity coefficient (332.85 K) | activity coefficient (343.15 K) |
| --- | --- | --- | --- | --- | --- |
| Cc1ccccc1C [1,2-dimethylbenzene] + CCCCCC[N+](C)(C)C.O=S(=O)([N-]S(=O)(=O)C(F)(F)F)C(F)(F)F | 1.66 ± 0.068 | 1.69 ± 0.07 | 1.76 ± 0.075 | – | – |
| Cc1ccccc1C [1,2-dimethylbenzene] + CCn1cc[n+](C)c1.N#CN=C=[N-] | 5.86 ± 0.27 | – | – | 5.8 ± 0.27 | 5.75 ± 0.26 |
| Cc1cccc(C)c1 [1,3-dimethylbenzene] + CCCCCC[N+](C)(C)C.O=S(=O)([N-]S(=O)(=O)C(F)(F)F)C(F)(F)F | 1.8 ± 0.077 | 1.82 ± 0.078 | 1.89 ± 0.083 | – | – |
| Cc1cccc(C)c1 [1,3-dimethylbenzene] + CCn1cc[n+](C)c1.N#CN=C=[N-] | 7.4 ± 0.34 | – | – | 8.39 ± 0.38 | 7.27 ± 0.33 |
| Cc1ccc(C)cc1 [1,4-dimethylbenzene] + CCCCCC[N+](C)(C)C.O=S(=O)([N-]S(=O)(=O)C(F)(F)F)C(F)(F)F | 1.82 ± 0.079 | 1.82 ± 0.079 | 1.86 ± 0.081 | – | – |
| Cc1ccc(C)cc1 [1,4-dimethylbenzene] + CCn1cc[n+](C)c1.N#CN=C=[N-] | 6.93 ± 0.32 | – | – | 7.05 ± 0.32 | 6.79 ± 0.31 |
| C1COCCO1 [1,4-dioxane] + CCCCCC[N+](C)(C)C.O=S(=O)([N-]S(=O)(=O)C(F)(F)F)C(F)(F)F | 0.655 ± 0.03 | 0.661 ± 0.03 | 0.68 ± 0.03 | – | – |
| C1COCCO1 [1,4-dioxane] + CCn1cc[n+](C)c1.N#CN=C=[N-] | 0.89 ± 0.03 | – | – | 1.24 ± 0.04 | 1.25 ± 0.04 |
| C#CCCCCC [1-heptyne] + CCCCCC[N+](C)(C)C.O=S(=O)([N-]S(=O)(=O)C(F)(F)F)C(F)(F)F | 3.57 ± 0.16 | 3.5 ± 0.16 | 3.54 ± 0.16 | – | – |
| C#CCCCCC [1-heptyne] + CCn1cc[n+](C)c1.N#CN=C=[N-] | 14.5 ± 0.67 | – | – | 14.3 ± 0.66 | 14.1 ± 0.65 |
| C#CCCCC [1-hexyne] + CCCCCC[N+](C)(C)C.O=S(=O)([N-]S(=O)(=O)C(F)(F)F)C(F)(F)F | 2.62 ± 0.12 | 2.56 ± 0.12 | 2.58 ± 0.12 | – | – |
| C#CCCCC [1-hexyne] + CCn1cc[n+](C)c1.N#CN=C=[N-] | 8.7 ± 0.4 | – | – | 8.47 ± 0.39 | 8.44 ± 0.39 |
| CCC[N+](=O)[O-] [1-nitropropane] + CCCCCC[N+](C)(C)C.O=S(=O)([N-]S(=O)(=O)C(F)(F)F)C(F)(F)F | 0.699 ± 0.03 | 0.681 ± 0.03 | 0.695 ± 0.03 | – | – |
| CCC[N+](=O)[O-] [1-nitropropane] + CCn1cc[n+](C)c1.N#CN=C=[N-] | 1.51 ± 0.06 | – | – | 1.5 ± 0.06 | 1.49 ± 0.06 |
| OCC(F)(F)F [2,2,2-trifluoroethanol] + CCCCCC[N+](C)(C)C.O=S(=O)([N-]S(=O)(=O)C(F)(F)F)C(F)(F)F | 0.157 ± 0.038 | 0.402 ± 0.034 | 0.393 ± 0.034 | – | – |
| OCC(F)(F)F [2,2,2-trifluoroethanol] + CCn1cc[n+](C)c1.N#CN=C=[N-] | 0.1 ± 0.04 | – | – | 0.11 ± 0.04 | 0.11 ± 0.04 |
| CC(C)CC(C)(C)C [2,2,4-trimethylpentane] + CCCCCC[N+](C)(C)C.O=S(=O)([N-]S(=O)(=O)C(F)(F)F)C(F)(F)F | 13.1 ± 0.6 | 12.1 ± 0.56 | 11.8 ± 0.54 | – | – |
| CC(C)CC(C)(C)C [2,2,4-trimethylpentane] + CCn1cc[n+](C)c1.N#CN=C=[N-] | 202 ± 9.5 | – | – | 180 ± 8.5 | 162 ± 7.6 |
| CC(C)CO [2-methyl-1-propanol] + CCCCCC[N+](C)(C)C.O=S(=O)([N-]S(=O)(=O)C(F)(F)F)C(F)(F)F | 2.1 ± 0.095 | 1.71 ± 0.071 | 1.63 ± 0.066 | – | – |
| CC(C)CO [2-methyl-1-propanol] + CCn1cc[n+](C)c1.N#CN=C=[N-] | 1.48 ± 0.06 | – | – | 1.4 ± 0.05 | 1.33 ± 0.05 |
| CCC(C)CC [3-methylpentane] + CCCCCC[N+](C)(C)C.O=S(=O)([N-]S(=O)(=O)C(F)(F)F)C(F)(F)F | 8.65 ± 0.4 | 8.09 ± 0.37 | 7.88 ± 0.36 | – | – |
| CCC(C)CC [3-methylpentane] + CCn1cc[n+](C)c1.N#CN=C=[N-] | 93.7 ± 4.4 | – | – | 87.2 ± 4.1 | 81.4 ± 3.8 |
| CC#N [acetonitrile] + CCCCCC[N+](C)(C)C.O=S(=O)([N-]S(=O)(=O)C(F)(F)F)C(F)(F)F | 0.486 ± 0.033 | 0.46 ± 0.033 | 0.465 ± 0.033 | – | – |
| CC#N [acetonitrile] + CCn1cc[n+](C)c1.N#CN=C=[N-] | 0.8 ± 0.03 | – | – | 0.79 ± 0.03 | 0.79 ± 0.03 |
| c1ccccc1 [benzene] + CCCCCC[N+](C)(C)C.O=S(=O)([N-]S(=O)(=O)C(F)(F)F)C(F)(F)F | 0.99 ± 0.025 | 0.993 ± 0.025 | 1.02 ± 0.026 | – | – |
| c1ccccc1 [benzene] + CCn1cc[n+](C)c1.N#CN=C=[N-] | 2.57 ± 0.12 | – | – | 2.56 ± 0.12 | 2.56 ± 0.12 |

| SMILES | activity coefficient (322.65 K) | activity coefficient (343.85 K) | activity coefficient (352.65 K) | activity coefficient (332.85 K) | activity coefficient (343.15 K) |
| --- | --- | --- | --- | --- | --- |
| CCCCO [butan-1-ol] + CCCCCC[N+](C)(C)C.O=S(=O)([N-]S(=O)(=O)C(F)(F)F)C(F)(F)F | 2.25 ± 0.1 | 1.83 ± 0.079 | 1.74 ± 0.073 | – | – |
| CCCCO [butan-1-ol] + CCn1cc[n+](C)c1.N#CN=C=[N-] | 1.59 ± 0.06 | – | – | 1.47 ± 0.06 | 1.4 ± 0.05 |
| CCCC=O [butanal] + CCCCCC[N+](C)(C)C.O=S(=O)([N-]S(=O)(=O)C(F)(F)F)C(F)(F)F | 0.657 ± 0.03 | 0.661 ± 0.03 | 0.677 ± 0.03 | – | – |
| CCCC=O [butanal] + CCn1cc[n+](C)c1.N#CN=C=[N-] | 2.23 ± 0.1 | – | – | 2.22 ± 0.1 | 2.21 ± 0.1 |
| CCC(C)=O [butanone] + CCCCCC[N+](C)(C)C.O=S(=O)([N-]S(=O)(=O)C(F)(F)F)C(F)(F)F | 0.422 ± 0.034 | 0.365 ± 0.035 | 0.354 ± 0.035 | – | – |
| CCC(C)=O [butanone] + CCn1cc[n+](C)c1.N#CN=C=[N-] | 1.59 ± 0.06 | – | – | 1.46 ± 0.06 | 1.33 ± 0.05 |
| C1CCCCCC1 [cycloheptane] + CCCCCC[N+](C)(C)C.O=S(=O)([N-]S(=O)(=O)C(F)(F)F)C(F)(F)F | 14.3 ± 0.66 | 33.3 ± 1.5 | 43.4 ± 2 | – | – |
| C1CCCCCC1 [cycloheptane] + CCn1cc[n+](C)c1.N#CN=C=[N-] | 128 ± 6 | – | – | 169 ± 8 | 221 ± 10 |
| C1CCCCC1 [cyclohexane] + CCCCCC[N+](C)(C)C.O=S(=O)([N-]S(=O)(=O)C(F)(F)F)C(F)(F)F | 6.6 ± 0.3 | 5.9 ± 0.27 | 5.74 ± 0.26 | – | – |
| C1CCCCC1 [cyclohexane] + CCn1cc[n+](C)c1.N#CN=C=[N-] | 46 ± 2.1 | – | – | 42.1 ± 2 | 38.7 ± 1.8 |
| CCCCCCCCCC [decane] + CCCCCC[N+](C)(C)C.O=S(=O)([N-]S(=O)(=O)C(F)(F)F)C(F)(F)F | 36.8 ± 1.7 | 31 ± 1.4 | 29.6 ± 1.4 | – | – |
| CCCCCCCCCC [decane] + CCn1cc[n+](C)c1.N#CN=C=[N-] | 699 ± 33 | – | – | 627 ± 30 | 565 ± 27 |
| ClCCl [dichloromethane] + CCCCCC[N+](C)(C)C.O=S(=O)([N-]S(=O)(=O)C(F)(F)F)C(F)(F)F | 0.678 ± 0.03 | 0.728 ± 0.029 | 0.759 ± 0.029 | – | – |
| ClCCl [dichloromethane] + CCn1cc[n+](C)c1.N#CN=C=[N-] | 0.67 ± 0.03 | – | – | 0.73 ± 0.03 | 0.78 ± 0.03 |
| CCOCC [diethyl ether] + CCCCCC[N+](C)(C)C.O=S(=O)([N-]S(=O)(=O)C(F)(F)F)C(F)(F)F | 1.52 ± 0.059 | 1.91 ± 0.084 | 1.94 ± 0.086 | – | – |
| CCOCC [diethyl ether] + CCn1cc[n+](C)c1.N#CN=C=[N-] | 9.88 ± 0.45 | – | – | 9.71 ± 0.45 | 9.56 ± 0.44 |
| CC(C)OC(C)C [diisopropyl ether] + CCCCCC[N+](C)(C)C.O=S(=O)([N-]S(=O)(=O)C(F)(F)F)C(F)(F)F | 3.2 ± 0.15 | 4.03 ± 0.18 | 4.12 ± 0.19 | – | – |
| CC(C)OC(C)C [diisopropyl ether] + CCn1cc[n+](C)c1.N#CN=C=[N-] | 32.1 ± 1.5 | – | – | 32.3 ± 1.5 | 32.4 ± 1.5 |
| CCCCCCCCCCCC [dodecane] + CCCCCC[N+](C)(C)C.O=S(=O)([N-]S(=O)(=O)C(F)(F)F)C(F)(F)F | 68.1 ± 3.2 | 55.8 ± 2.6 | 52.9 ± 2.5 | – | – |
| CCCCCCCCCCCC [dodecane] + CCn1cc[n+](C)c1.N#CN=C=[N-] | 1410 ± 68 | – | – | 1290 ± 62 | 1180 ± 57 |
| CCO [ethanol] + CCCCCC[N+](C)(C)C.O=S(=O)([N-]S(=O)(=O)C(F)(F)F)C(F)(F)F | 2.41 ± 0.11 | 1.28 ± 0.043 | 1.21 ± 0.039 | – | – |
| CCO [ethanol] + CCn1cc[n+](C)c1.N#CN=C=[N-] | 0.78 ± 0.03 | – | – | 0.74 ± 0.03 | 0.75 ± 0.03 |
| CCOC(C)=O [ethyl acetate] + CCCCCC[N+](C)(C)C.O=S(=O)([N-]S(=O)(=O)C(F)(F)F)C(F)(F)F | 0.72 ± 0.029 | 0.748 ± 0.029 | 0.776 ± 0.028 | – | – |
| CCc1ccccc1 [ethylbenzene] + CCCCCC[N+](C)(C)C.O=S(=O)([N-]S(=O)(=O)C(F)(F)F)C(F)(F)F | 1.83 ± 0.079 | 1.91 ± 0.084 | 1.97 ± 0.088 | – | – |
| CCc1ccccc1 [ethylbenzene] + CCn1cc[n+](C)c1.N#CN=C=[N-] | 7.43 ± 0.34 | – | – | 7.38 ± 0.34 | 7.29 ± 0.33 |
